According to the supplement of paper PMC10307832:

Assays:
Assay in all cases: relative viability (nuclei count vs DMSO), 5 days (fraction); higher = more cells survive
NCI-H322M = test system: NCI-H322M
Outline: (§1)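 Dosing by pin tool came one day after lung cancer cell lines were seeded in 1536-well plates, using either one drug or a fixed anchor-drug dose plus five library-drug doses (not always all listed) in √10 steps. After 5 days, nuclei were counted on 4× images. Relative viability is treated-well nuclei count divided by vehicle-well nuclei count, and values are medians of duplicate plates.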

NCI-H2228 = test system: NCI-H2228
Outline: as §1

CAL-12T = test system: CAL-12T
Outline: as §1

NCI-H838 = test system: NCI-H838
Outline: as §1

NCI-H1666 = test system: NCI-H1666
Outline: as §1

PC-3 [JPC-3] = test system: PC-3 [JPC-3]
Outline: as §1

NCI-H1915 = test system: NCI-H1915
Outline: as §1

UMC-11 = test system: UMC-11
Outline: as §1

LK-2 = test system: LK-2
Outline: as §1

NCI-H2087 = test system: NCI-H2087
Outline: as §1

SK-MES-1 = test system: SK-MES-1
Outline: as §1

`O=C(O)CCCCC(CCSCc1ccccc1)SCc1ccccc1` (centres undefined) [CPI-613] + C[C@@H](Oc1cc(-c2cnn(C3CCNCC3)c2)cnc1N)c1c(Cl)ccc(F)c1Cl [Crizotinib] (partner 1 µM) showed a relative viability (NCI-H322M; first compound 5 µM) of 0.917, a relative viability (NCI-H322M; first compound 15.81 µM) of 0.917 and a relative viability (NCI-H322M; first compound 50 µM) of 1. It also gave a relative viability (NCI-H322M; first compound 158.11 µM) of 0.996, a relative viability (NCI-H322M; first compound 500 µM) of 1.01 and a relative viability (NCI-H2228; first compound 5 µM) of 0.513. It also gave a relative viability (NCI-H2228; first compound 15.81 µM) of 0.481, a relative viability (NCI-H2228; first compound 50 µM) of 0.52 and a relative viability (NCI-H2228; first compound 158.11 µM) of 0.203. For the same molecule, the relative viability (NCI-H2228; first compound 500 µM) was 0.0468, the relative viability (CAL-12T; first compound 5 µM) was 0.596 and the relative viability (CAL-12T; first compound 15.81 µM) was 0.504. For the same molecule, the relative viability (CAL-12T; first compound 50 µM) was 0.471, the relative viability (CAL-12T; first compound 158.11 µM) was 0.0667 and the relative viability (CAL-12T; first compound 500 µM) was 0.0085. For the same molecule, the relative viability (NCI-H838; first compound 5 µM) was 0.882, the relative viability (NCI-H838; first compound 15.81 µM) was 0.833 and the relative viability (NCI-H838; first compound 50 µM) was 0.803. For the same molecule, the relative viability (NCI-H838; first compound 158.11 µM) was 0.598, the relative viability (NCI-H838; first compound 500 µM) was 0.0806 and the relative viability (NCI-H1666; first compound 5 µM) was 0.863. It also gave a relative viability (NCI-H1666; first compound 15.81 µM) of 0.995, a relative viability (NCI-H1666; first compound 50 µM) of 1.03 and a relative viability (NCI-H1666; first compound 158.11 µM) of 0.236. The relative viability (NCI-H1666; first compound 500 µM) was 0.131, the relative viability (PC-3 [JPC-3]; first compound 5 µM) was 0.977 and the relative viability (PC-3 [JPC-3]; first compound 15.81 µM) was 0.89. The relative viability (PC-3 [JPC-3]; first compound 50 µM) was 0.889, the relative viability (PC-3 [JPC-3]; first compound 158.11 µM) was 0.648 and the relative viability (PC-3 [JPC-3]; first compound 500 µM) was 0.324. For the same molecule, the relative viability (NCI-H1915; first compound 5 µM) was 0.895, the relative viability (NCI-H1915; first compound 15.81 µM) was 0.93 and the relative viability (NCI-H1915; first compound 50 µM) was 0.809. It also gave a relative viability (NCI-H1915; first compound 158.11 µM) of 0.678, a relative viability (NCI-H1915; first compound 500 µM) of 0.446 and a relative viability (UMC-11; first compound 5 µM) of 0.578. The relative viability (UMC-11; first compound 15.81 µM) was 0.668, the relative viability (UMC-11; first compound 50 µM) was 0.696 and the relative viability (UMC-11; first compound 158.11 µM) was 0.298. The relative viability (UMC-11; first compound 500 µM) was 0.0636, the relative viability (LK-2; first compound 5 µM) was 0.225 and the relative viability (LK-2; first compound 15.81 µM) was 0.191. The relative viability (LK-2; first compound 50 µM) was 0.227, the relative viability (LK-2; first compound 158.11 µM) was 0.219 and the relative viability (LK-2; first compound 500 µM) was 0.249. For the same molecule, the relative viability (NCI-H2087; first compound 5 µM) was 0.909, the relative viability (NCI-H2087; first compound 15.81 µM) was 0.706 and the relative viability (NCI-H2087; first compound 50 µM) was 0.706. The relative viability (NCI-H2087; first compound 158.11 µM) was 0.132, the relative viability (NCI-H2087; first compound 500 µM) was 0.0499 and the relative viability (SK-MES-1; first compound 5 µM) was 0.918. For the same molecule, the relative viability (SK-MES-1; first compound 15.81 µM) was 0.961, the relative viability (SK-MES-1; first compound 50 µM) was 0.936 and the relative viability (SK-MES-1; first compound 158.11 µM) was 0.926.
